Structures can show the parent of a compound that is named as a salt.

Here are results for one compound from patent publication US7557111B2, “Substituted thieno[3,2-d]pyrimidines as CRF receptor antagonists” (Taisho Pharmaceutical Co., Ltd., priority 2004, dated 2009).

With `Cc1nc(N2CCC(CO)CC2)c2sc(C)c(-c3c(C)cc(Br)cc3C)c2n1` (as salt: HCl) [compound 1-004, {1-[7-(4-bromo-2,6-dimethyl-phenyl)-2,6-dimethyl-thieno[3,2-d]pyrimidin-4-yl]-piperidin-4-yl}-methanol hydrochloride], the melting point fell in the range of 242 to 244 °C.

In general, melting point refers to the temperature of the solid-liquid transition.
